Experimental data published in patent US20260206809A1, “NATURAL SWEETENER COMPOSITIONS CONTAINING ALKYL LACTATES AND USES THEREOF” (Firmenich SA, priority 2022, published 2026).

Test: Solubility limit of the natural sweetener in pure solvents (estimated)
Format: physicochemical
Details: for Solubility limit in ethyl lactate: pure ethyl lactate; for Solubility limit in glycerol: pure glycerol
Experimental: As used herein, “solubility at 25° C.” or “solubility at RT” is meant to represent the thermodynamic, equilibrium solubility of a natural sweetener at 25° C. or at RT. […] Subsequently, even once the temperature is brought back to a lower temperature, for example to 25° C., the solid compound may remain in solution for a certain amount of time while being supersaturated. However, this is an apparent solubility due to a non-equilibrium, metastable state with limited shelf-life stability, and therefore is distinguished from thermodynamic solubility at equilibrium. Thermodynamic solubility can, for example, be determined with the so-called shake flask method at a controlled temperature. Alternatively, it can be determined by slowly heating the compound and recording the solubilization temperature after complete dissolution.

Row | Molecule | Solubility limit in ethyl lactate [%] | Solubility limit in glycerol
1 | C=C1C[C@@]23CC[C@H]4[C@@](C)(CCC[C@@]4(C)C(=O)O[C@@H]4O[C@H](CO)[C@@H](O)[C@H](O)[C@H]4O)[C@@H]2CC[C@]1(O[C@@H]1O[C@H](CO)[C@@H](O)[C@H](O[C@@H]2O[C@H](CO)[C@@H](O)[C@H](O)[C@H]2O)[C@H]1O[C@@H]1O[C@H](CO)[C@@H](O)[C@H](O)[C@H]1O)C3 [Reb A (99.5%), Rebaudioside A] | < 0.3 | about 2 % wt.
2 | C=C1C[C@@]23CC[C@H]4[C@@](C)(CCC[C@@]4(C)C(=O)O[C@@H]4O[C@H](CO)[C@@H](O)[C@H](O[C@@H]5O[C@H](CO)[C@@H](O)[C@H](O)[C@H]5O)[C@H]4O[C@@H]4O[C@H](CO)[C@@H](O)[C@H](O)[C@H]4O)[C@@H]2CC[C@]1(O[C@@H]1O[C@H](CO)[C@@H](O)[C@H](O[C@@H]2O[C@H](CO)[C@@H](O)[C@H](O)[C@H]2O)[C@H]1O[C@@H]1O[C@H](CO)[C@@H](O)[C@H](O)[C@H]1O)C3 [Reb M (95%), Rebaudioside M] | < 0.7 | about 9 % wt.
3 | Rebaudioside B [Reb B (95%)] | < 1 | about 16 % wt.
